Measurements: US20100305204A1, “COMPOSITION USEFUL FOR THE PREVENTION OF ADVERSE EFFECT DUE TO THE USE OF PPAR-GAMMA AGONISTS” (SIGMA-TAU INDUSTRIE FARMACEUTICHE RIUNITE S.P.A., priority 2007, published 2010)
“And” between values parts separate entries of the source, which are not always exact repeats. Identical values can stand only once.

Assays:
[1] = test system: IGF1; assay: Serum levels of IGF1 in rosiglitazone-treated patients affected by osteoporosis
[2] = Body weight (BW) of the patients
[3] = test system: osteocalcine; assay: Serum levels of osteocalcine in rosiglitazone-treated patients affected by osteoporosis
[4] = T1 versus T0, a month of wash-out, 6 patients
[5] = after 1-month rosiglitazone wash-out (T1), patients 1-6 individually and mean
[6] = after treatment with rosiglitazone 8 mg/day orally for 12 months (T0), patients 1-6 individually and mean

Which “Change of serum IGF1 after wash-out” value [1, 4] does the source give for `CN(CCOc1ccc(CC2SC(=O)NC2=O)cc1)c1ccccn1` (stereo not drawn) [rosiglitazone] here?
The value was “lightly incremented even if not significantly”.

What about the “Serum level of IGF1, T1” value [1, 5] of the same compound?
The value was 310000 pg/mL and 375000 pg/mL and 300000 pg/mL and 380000 pg/mL and 280000 pg/mL and 265000 pg/mL.

What about the “Serum level of IGF1, T0” value [1, 6] of the same compound?
The value was 300 ng/ml and 235 ng/ml and 260 ng/ml (2×) and 330 ng/ml and 270 ng/ml.

What about the “Change of body weight (BW) after wash-out” value [2, 4] of the same compound?
Its value is “didn't demonstrate variations”.

What about the “BW Body weight, T1” value [2, 5] of the same compound?
The value was 98.9 and 102 and 109 and 94.6 and 96.8 and 97.

And the “BW Body weight, T0” value [2, 6]?
The value was 99 and 102.5 and 108.9 and 94.5 and 97.3 and 97.2.

And the “Change of Total Body Water after wash-out” value [4]?
Its value is “didn't demonstrate variations”.

What about the “TBW Total Body Water, T1” value [5] of the same compound?
The value was 50 and 50.2 and 53.5 and 48 and 50.8 and 49.9.

And the “TBW Total Body Water, T0” value [6]?
The value was 50.1 and 50.3 and 53.6 and 48 and 50.9 and 49.8.

What about the “Change of serum osteocalcine after wash-out” value [3, 4] of the same compound?
Its value is “lightly incremented even if not significantly”.

What about the “Serum level of osteocalcine, T1” value [3, 5] of the same compound?
Its value is 0.0028 pg/mL and 0.0029 pg/mL and 0.003 pg/mL and 0.0027 pg/mL and 0.0026 pg/mL.

And the “Serum level of osteocalcine, T0” value [3, 6]?
Its value is 0.0027 pg/mL and 0.003 pg/mL and 0.0031 pg/mL and 0.0023 pg/mL and 0.0022 pg/mL and 0.0026 pg/mL.
